Data: ChEMBL document CHEMBL1201862, “PubChem BioAssay data set” (2004)
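Compound exposure: 48 hours, 5 concentrations, 96-well plates. GI50 marks 50% less growth.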 The source made the active and inactive calls. No stated cut-off is given here; in the data, active = GI50 up to about 1.1 µM and inactive = higher.

Legend:
Assay in all cases: inhibition of tumour cell growth, NCI panel, 48 h
786-0 = system: 786-0
A498 = system: A498
ACHN = system: ACHN
BT-549 = system: BT-549
CAKI-1 = system: CAKI-1
CCRF-CEM = system: CCRF-CEM
COLO 205 = system: COLO 205
DU-145 = system: DU-145
EKVX = system: EKVX
HCC 2998 = system: HCC 2998
HCT-116 = system: HCT-116
HCT-15 = system: HCT-15
HL-60 = system: HL-60
HOP-62 = system: HOP-62
HOP-92 = system: HOP-92
HT-29 = system: HT-29
Hs-578T = system: Hs-578T
IGROV-1 = system: IGROV-1
K562 = system: K562
KM12 = system: KM12
LOX IMVI = system: LOX IMVI
M14 = system: M14
MDA-MB-231 = system: MDA-MB-231
MDA-MB-435 = system: MDA-MB-435
MDA-N = system: MDA-N
MOLT-4 = system: MOLT-4
Malme-3M = system: Malme-3M
NCI-H226 = system: NCI-H226
NCI-H23 = system: NCI-H23
NCI-H460 = system: NCI-H460
NCI-H522 = system: NCI-H522
NCI/ADR-RES = system: NCI/ADR-RES
OVCAR-3 = system: OVCAR-3
OVCAR-4 = system: OVCAR-4
OVCAR-5 = system: OVCAR-5
OVCAR-8 = system: OVCAR-8
PC-3 = system: PC-3
RPMI-8226 = system: RPMI-8226
SF-268 = system: SF-268
SF-295 = system: SF-295
SK-MEL-28 = system: SK-MEL-28
SK-MEL-2 = system: SK-MEL-2
SK-MEL-5 = system: SK-MEL-5
SK-OV-3 = system: SK-OV-3
SN12C = system: SN12C
SNB-19 = system: SNB-19
SNB-75 = system: SNB-75
SR = system: SR
SW-620 = system: SW-620
TK-10 = system: TK-10
U-251 = system: U-251
UACC-257 = system: UACC-257
UACC-62 = system: UACC-62
UO-31 = system: UO-31
A549 = system: A549
MCF7 = system: MCF7
RXF 393 = system: RXF 393
SF-539 = system: SF-539

CCN(CC)c1c(-c2c(OC(C)C)c(=O)c2=O)c(=O)n2ccsc2c1OC(C)=O
GI50 (786-0): > 100 µM (inactive) | GI50 (A498): > 100 µM (inactive) | GI50 (ACHN): > 100 µM (inactive) | GI50 (BT-549): > 100 µM (inactive) | GI50 (CAKI-1): > 100 µM (inactive) | GI50 (CCRF-CEM): > 100 µM (inactive) | GI50 (COLO 205): > 100 µM (inactive) | GI50 (DU-145): > 100 µM (inactive) | GI50 (EKVX): 71.9 µM (inactive) | GI50 (HCC 2998): > 100 µM (inactive) | GI50 (HCT-116): > 100 µM (inactive) | GI50 (HCT-15): > 100 µM | GI50 (HL-60): 85.3 µM (inactive) | GI50 (HOP-62): > 100 µM (inactive) | GI50 (HOP-92): > 100 µM (inactive) | GI50 (HT-29): > 100 µM (inactive) | GI50 (Hs-578T): 17.8 µM (inactive) | GI50 (IGROV-1): 89.9 µM (inactive) | GI50 (K562): > 100 µM (inactive) | GI50 (KM12): > 100 µM (inactive) | GI50 (LOX IMVI): > 100 µM (inactive) | GI50 (M14): > 100 µM (inactive) | GI50 (MDA-MB-231): > 100 µM (inactive) | GI50 (MDA-MB-435): > 100 µM (inactive) | GI50 (MDA-N): > 100 µM (inactive) | GI50 (MOLT-4): > 100 µM (inactive) | GI50 (Malme-3M): 39.7 µM (inactive) | GI50 (NCI-H226): > 100 µM (inactive) | GI50 (NCI-H23): > 100 µM (inactive) | GI50 (NCI-H460): > 100 µM (inactive) | GI50 (NCI-H522): 17.5 µM (inactive) | GI50 (NCI/ADR-RES): > 100 µM (inactive) | GI50 (OVCAR-3): > 100 µM (inactive) | GI50 (OVCAR-4): > 100 µM (inactive) | GI50 (OVCAR-5): > 100 µM (inactive) | GI50 (OVCAR-8): > 100 µM (inactive) | GI50 (PC-3): > 100 µM (inactive) | GI50 (RPMI-8226): 34.8 µM (inactive) | GI50 (SF-268): > 100 µM (inactive) | GI50 (SF-295): > 100 µM (inactive) | GI50 (SK-MEL-28): > 100 µM (inactive) | GI50 (SK-MEL-2): > 100 µM (inactive) | GI50 (SK-MEL-5): > 100 µM (inactive) | GI50 (SK-OV-3): > 100 µM (inactive) | GI50 (SN12C): > 100 µM (inactive) | GI50 (SNB-19): > 100 µM (inactive) | GI50 (SNB-75): 5.13 µM (inactive) | GI50 (SR): > 100 µM (inactive) | GI50 (SW-620): > 100 µM (inactive) | GI50 (TK-10): > 100 µM (inactive) | GI50 (U-251): > 100 µM (inactive) | GI50 (UACC-257): > 100 µM (inactive) | GI50 (UACC-62): > 100 µM (inactive) | GI50 (UO-31): > 100 µM (inactive)

CCOC(=O)c1cn2c(ccc3sc4ccccc4c(=O)c32)n1
GI50 (786-0): > 100 µM (inactive) | GI50 (A498): > 100 µM (inactive) | GI50 (A549): > 100 µM (inactive) | GI50 (ACHN): > 100 µM (inactive) | GI50 (BT-549): > 100 µM (inactive) | GI50 (CAKI-1): > 100 µM (inactive) | GI50 (CCRF-CEM): > 100 µM (inactive) | GI50 (COLO 205): > 100 µM (inactive) | GI50 (DU-145): > 100 µM (inactive) | GI50 (EKVX): > 100 µM (inactive) | GI50 (HCC 2998): > 100 µM (inactive) | GI50 (HCT-116): > 100 µM (inactive) | GI50 (HCT-15): > 100 µM | GI50 (HL-60): > 100 µM (inactive) | GI50 (HOP-62): > 100 µM (inactive) | GI50 (HOP-92): 87.5 µM (inactive) | GI50 (HT-29): > 100 µM (inactive) | GI50 (Hs-578T): > 100 µM (inactive) | GI50 (IGROV-1): > 100 µM (inactive) | GI50 (K562): > 100 µM (inactive) | GI50 (KM12): > 100 µM (inactive) | GI50 (LOX IMVI): > 100 µM (inactive) | GI50 (MCF7): 84.3 µM (inactive) | GI50 (MDA-MB-231): > 100 µM (inactive) | GI50 (MDA-MB-435): > 100 µM (inactive) | GI50 (MDA-N): > 100 µM (inactive) | GI50 (MOLT-4): > 100 µM (inactive) | GI50 (Malme-3M): > 100 µM (inactive) | GI50 (NCI-H226): > 100 µM (inactive) | GI50 (NCI-H23): > 100 µM (inactive) | GI50 (NCI-H460): > 100 µM (inactive) | GI50 (NCI-H522): > 100 µM (inactive) | GI50 (NCI/ADR-RES): > 100 µM (inactive) | GI50 (OVCAR-3): > 100 µM (inactive) | GI50 (OVCAR-5): > 100 µM (inactive) | GI50 (OVCAR-8): > 100 µM (inactive) | GI50 (PC-3): > 100 µM (inactive) | GI50 (RPMI-8226): > 100 µM (inactive) | GI50 (RXF 393): > 100 µM (inactive) | GI50 (SF-268): > 100 µM (inactive) | GI50 (SF-295): > 100 µM (inactive) | GI50 (SF-539): > 100 µM (inactive) | GI50 (SK-MEL-28): > 100 µM (inactive) | GI50 (SK-MEL-5): > 100 µM (inactive) | GI50 (SN12C): > 100 µM (inactive) | GI50 (SNB-19): > 100 µM (inactive) | GI50 (SNB-75): > 100 µM (inactive) | GI50 (SR): > 100 µM (inactive) | GI50 (SW-620): > 100 µM (inactive) | GI50 (TK-10): > 100 µM (inactive) | GI50 (U-251): > 100 µM (inactive) | GI50 (UACC-257): > 100 µM (inactive) | GI50 (UO-31): > 100 µM (inactive)
